Measurements as given in ChEMBL document CHEMBL1201862, “PubChem BioAssay data set” (2004).
Active and inactive are the calls of the source.

Key:
Cytochrome P450 2D6 = Cytochrome P450 2D6 (Homo sapiens, UniProt P10635);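 also: CYP2D6 member of a cytochrome P450 panel assay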
Cytochrome P450 1A2 = target: T1, Cytochrome P450 1A2 (Homo sapiens, UniProt P05177);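 also: PubChem cytochrome P450 panel assay, CYP1A2 panel member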
T1 sequence (P05177 whole entry): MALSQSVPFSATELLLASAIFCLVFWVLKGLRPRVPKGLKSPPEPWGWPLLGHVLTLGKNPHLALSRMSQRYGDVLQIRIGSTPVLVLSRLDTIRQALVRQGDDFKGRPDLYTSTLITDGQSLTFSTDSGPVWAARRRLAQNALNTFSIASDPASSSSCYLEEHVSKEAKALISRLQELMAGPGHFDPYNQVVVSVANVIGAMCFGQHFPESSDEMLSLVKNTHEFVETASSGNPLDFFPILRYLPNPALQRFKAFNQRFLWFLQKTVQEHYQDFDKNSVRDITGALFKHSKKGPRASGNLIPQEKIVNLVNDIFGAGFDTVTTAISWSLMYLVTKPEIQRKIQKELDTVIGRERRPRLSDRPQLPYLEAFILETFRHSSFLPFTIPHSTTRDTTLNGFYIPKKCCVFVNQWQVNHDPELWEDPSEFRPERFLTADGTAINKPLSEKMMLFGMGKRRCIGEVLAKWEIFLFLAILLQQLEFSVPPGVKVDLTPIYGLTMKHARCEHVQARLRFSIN

Cytochrome P450 3A4 = Cytochrome P450 3A4 (Homo sapiens, UniProt P08684);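 also: CYP3A4 tested as one member of a cytochrome P450 panel screen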
Sequence of Cytochrome P450 3A4 (P08684 whole entry): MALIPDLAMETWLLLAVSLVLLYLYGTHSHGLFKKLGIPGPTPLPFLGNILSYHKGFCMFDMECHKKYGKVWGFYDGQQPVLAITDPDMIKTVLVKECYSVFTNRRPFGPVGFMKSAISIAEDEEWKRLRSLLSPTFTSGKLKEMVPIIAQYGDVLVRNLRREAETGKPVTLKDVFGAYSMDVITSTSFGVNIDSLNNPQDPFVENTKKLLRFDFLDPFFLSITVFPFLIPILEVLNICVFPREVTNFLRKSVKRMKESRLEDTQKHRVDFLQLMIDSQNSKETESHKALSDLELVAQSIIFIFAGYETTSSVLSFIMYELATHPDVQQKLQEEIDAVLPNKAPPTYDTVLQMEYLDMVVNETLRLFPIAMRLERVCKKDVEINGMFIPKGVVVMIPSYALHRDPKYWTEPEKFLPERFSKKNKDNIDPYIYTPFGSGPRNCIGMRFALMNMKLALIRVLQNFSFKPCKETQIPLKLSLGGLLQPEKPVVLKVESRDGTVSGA

[1] = target: T2, Corticotropin-releasing factor receptor 2/Corticotropin-releasing factor-binding protein (Homo sapiens, UniProt P24387+Q13324); assay: activators of CRF receptor 2 with binding protein – uHTS hits, confirmation (AID 602473); format: functional; details: read-out: EC50_Mean
T2 sequence (Q13324 whole entry): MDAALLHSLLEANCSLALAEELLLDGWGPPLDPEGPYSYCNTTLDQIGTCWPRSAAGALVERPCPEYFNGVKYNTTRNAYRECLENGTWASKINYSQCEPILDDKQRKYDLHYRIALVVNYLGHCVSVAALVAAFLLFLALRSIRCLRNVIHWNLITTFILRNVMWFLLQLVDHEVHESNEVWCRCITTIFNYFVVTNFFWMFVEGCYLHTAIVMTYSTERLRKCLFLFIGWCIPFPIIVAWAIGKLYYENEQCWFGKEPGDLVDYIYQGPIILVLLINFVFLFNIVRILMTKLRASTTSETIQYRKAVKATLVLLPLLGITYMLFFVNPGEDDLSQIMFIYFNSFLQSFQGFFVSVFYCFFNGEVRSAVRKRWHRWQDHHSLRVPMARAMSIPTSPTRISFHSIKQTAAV
T2 sequence (P24387 whole entry): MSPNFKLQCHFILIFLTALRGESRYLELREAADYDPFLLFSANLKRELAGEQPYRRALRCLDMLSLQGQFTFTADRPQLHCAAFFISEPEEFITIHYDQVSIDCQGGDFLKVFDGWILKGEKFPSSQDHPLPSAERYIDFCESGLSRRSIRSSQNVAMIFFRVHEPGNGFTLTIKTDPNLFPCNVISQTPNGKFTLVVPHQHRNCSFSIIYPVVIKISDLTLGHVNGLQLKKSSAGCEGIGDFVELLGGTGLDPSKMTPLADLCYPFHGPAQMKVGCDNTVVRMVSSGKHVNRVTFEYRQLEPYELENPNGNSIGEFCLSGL

[2] = Luminescence Cell-Based Dose Confirmation HTS to Identify Activators of 5'UTR Stem-Loop Driven Alpha-Synuclein mRNA Translation in H4 Neuroglioblastoma Cells. [Related pubchem assays: 1829 (Project Summary), 1814 (Primary HTS)]; format: functional
[3] = Luminescence Cell-Based Dose Response HTS to Identify Activators of Luciferase Translation or Activity in H4 […] Cells. [Related pubchem assays: 1829 (Project Summary), 1814 (Primary HTS)]; format: functional
H4 = assay: Luminescence Cell-Based Dose Response HTS to Identify Activators of 5'UTR Stem-Loop Driven Prion Protein mRNA Translation in H4 Neuroglioblastoma Cells. [Related pubchem assays: 1829 (Project Summary), 1814 (Primary HTS)]; format: functional; details: Homo sapiens
[4] = target: T3, Rac GTPase-activating protein 1 (Homo sapiens, UniProt Q9H0H5); assay: blockers of MgcRacGAP-driven Rac1 GTP hydrolysis – biochemical, ADP Hunter fluorescence, primary and confirmatory, confirmation (AID 624330); format: functional
T3 sequence (Q9H0H5 whole entry): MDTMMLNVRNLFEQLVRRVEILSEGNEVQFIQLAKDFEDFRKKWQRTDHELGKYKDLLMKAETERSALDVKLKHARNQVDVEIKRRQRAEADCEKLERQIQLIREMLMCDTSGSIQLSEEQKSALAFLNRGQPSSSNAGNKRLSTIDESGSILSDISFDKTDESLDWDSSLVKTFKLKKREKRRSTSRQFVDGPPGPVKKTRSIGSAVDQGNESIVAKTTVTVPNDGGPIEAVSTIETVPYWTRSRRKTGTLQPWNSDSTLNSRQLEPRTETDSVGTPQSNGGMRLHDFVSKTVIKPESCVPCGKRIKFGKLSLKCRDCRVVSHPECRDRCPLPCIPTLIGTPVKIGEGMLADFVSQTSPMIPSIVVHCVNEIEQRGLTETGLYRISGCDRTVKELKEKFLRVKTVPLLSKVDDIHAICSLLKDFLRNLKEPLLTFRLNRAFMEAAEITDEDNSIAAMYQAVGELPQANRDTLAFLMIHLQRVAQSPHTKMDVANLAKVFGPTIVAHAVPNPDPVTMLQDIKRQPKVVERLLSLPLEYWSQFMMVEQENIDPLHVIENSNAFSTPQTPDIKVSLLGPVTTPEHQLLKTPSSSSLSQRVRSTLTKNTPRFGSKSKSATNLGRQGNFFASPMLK

Cytochrome P450 2C19 = Cytochrome P450 2C19 (Homo sapiens, UniProt P33261); assay: Cytochrome panel assay with activity outcomes. Panel member name: p450-cyp2c19 Compounds with AC50 equal or less than 10 uM are considered active; format: functional; details: read-out: AC50
Sequence of Cytochrome P450 2C19 (P33261 whole entry): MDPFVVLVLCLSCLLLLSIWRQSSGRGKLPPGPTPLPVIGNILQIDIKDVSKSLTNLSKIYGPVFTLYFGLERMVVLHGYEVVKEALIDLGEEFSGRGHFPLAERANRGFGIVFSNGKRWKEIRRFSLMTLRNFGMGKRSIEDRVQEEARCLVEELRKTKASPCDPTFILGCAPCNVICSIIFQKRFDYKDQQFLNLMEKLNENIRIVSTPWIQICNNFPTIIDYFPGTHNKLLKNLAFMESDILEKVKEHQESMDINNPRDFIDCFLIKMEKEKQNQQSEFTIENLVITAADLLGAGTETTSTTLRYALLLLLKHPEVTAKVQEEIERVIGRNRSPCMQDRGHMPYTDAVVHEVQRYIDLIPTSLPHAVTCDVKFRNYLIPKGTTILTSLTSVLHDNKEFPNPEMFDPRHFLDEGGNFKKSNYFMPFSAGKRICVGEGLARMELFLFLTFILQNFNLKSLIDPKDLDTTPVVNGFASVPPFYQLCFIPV

Sequence of Cytochrome P450 2D6 (P10635 whole entry): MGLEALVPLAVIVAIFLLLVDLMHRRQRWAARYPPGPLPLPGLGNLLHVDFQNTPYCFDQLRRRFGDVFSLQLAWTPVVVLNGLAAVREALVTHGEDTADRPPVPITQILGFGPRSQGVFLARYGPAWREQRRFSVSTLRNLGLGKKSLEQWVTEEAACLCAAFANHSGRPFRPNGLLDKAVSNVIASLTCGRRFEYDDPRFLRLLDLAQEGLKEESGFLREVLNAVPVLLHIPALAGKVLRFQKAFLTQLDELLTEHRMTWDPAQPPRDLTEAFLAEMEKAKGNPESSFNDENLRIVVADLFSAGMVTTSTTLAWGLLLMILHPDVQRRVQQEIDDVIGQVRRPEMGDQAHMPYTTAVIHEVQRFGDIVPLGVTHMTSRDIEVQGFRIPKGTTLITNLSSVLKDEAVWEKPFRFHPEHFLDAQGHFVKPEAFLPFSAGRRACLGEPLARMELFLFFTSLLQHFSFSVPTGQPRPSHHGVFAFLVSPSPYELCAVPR

| Compound | AC50 (Cytochrome P450 1A2) | EC50 [2] | EC50 [3] | EC50 (H4) | also measured |
| --- | --- | --- | --- | --- | --- |
| NCCCCNS(=O)(=O)c1ccc2c(Cl)cccc2c1 | 39.8 µM (inconclusive) | – | – | – | AC50 (Cytochrome P450 2D6): 31.6 µM (inconclusive); AC50 (Cytochrome P450 3A4): 25.1 µM (inconclusive) |
| Cc1[nH]c2ccccc2c1C(=O)CN1CCCCC1C (stereo not drawn) | – | – | – | – | EC50 [1]: 9.87 µM (active) |
| COc1ccc(/C=C2\SC(=O)N(CCNC(=O)Cc3coc4cc(OC)ccc34)C2=O)cc1 | – | 23.4 µM (active) | 11.5 µM (active) | 10.4 µM (active) | – |
| Cc1nn(-c2ccccc2)c(C)c1C(=O)OCC(=O)N(C)C1CCS(=O)(=O)C1 (stereo not drawn) | – | 0.313 µM (active) | 12.5 µM (active) | – | – |
| COC(=O)c1ccccc1NS(=O)(=O)c1ccc2c3c(cccc13)C(=O)N2 | 15.8 µM (inconclusive) | – | – | – | AC50 (Cytochrome P450 2D6): 28.2 µM (inconclusive); AC50 (Cytochrome P450 3A4): 12.6 µM (inconclusive) |
| COc1cc(C(C)=O)ccc1OCc1cc(C(=O)N(C)CCC2CCCCO2)no1 (stereo not drawn) | – | 0.831 µM (active) | 80.8 µM (active) | 7.86 µM (active) | – |
| Cc1ccc(/C=C2\SC(N3CCCCC3)=NC2=O)cc1 | – | 53.1 µM (active) | 10.1 µM (active) | 45.1 µM (active) | – |
| CCC/C=C(\CCC)C(NS(=O)(=O)c1cccc2cccnc12)c1ccc(C(=O)OC)cc1 (stereo not drawn) | 6.31 µM (inconclusive) | – | – | – | – |
| COC(=O)[C@H](C)[C@@H]1C[C@@]1(C)[C@@H](NC(=O)OCc1ccccc1)c1ccccc1 | 15.8 µM (inconclusive) | – | – | – | – |
| COc1cc(/C=C/C(=O)OCC(=O)N2CCN(S(=O)(=O)c3ccc(C)cc3C)CC2)ccc1O | – | – | – | – | IC50 [4]: 88.2 µM (active) |
| CN(Cc1ccsc1)C(=O)Cn1cc(Br)ccc1=O | – | > 120 µM (not active) | 8.64 µM (active) | 31.7 µM (active) | – |
| O=S(=O)(c1cccc(-c2nnc(SCc3nc4ccccc4s3)o2)c1)N1CCOCC1 | – | 5.25 µM (active) | 21.4 µM (active) | > 120 µM (not active) | – |
| CC(C)(C)c1ccc(C(=O)NCc2ccc(Cl)cc2)cc1 | 2 µM (inconclusive) | – | – | – | – |
| COc1ccc(C(=O)NCc2cc3ccccc3n2C)cc1 | – | 7.51 µM (active) | 12 µM (active) | 9.84 µM (active) | – |
| CCO[C@H]1O[C@@H]([C@H](COCc2ccccc2)OCc2ccccc2)[C@@H](OCc2ccccc2)[C@H]1O | 12.6 µM (inconclusive) | – | – | – | AC50 (Cytochrome P450 2D6): 15.8 µM (inconclusive); AC50 (Cytochrome P450 2C19): 5.01 µM (inconclusive) |
| Cc1cc(Cc2cc(C)c(N)cc2N)c(N)cc1N | 2 µM (inconclusive) | – | – | – | – |
| CCOc1cc(CN2CCN(C(=O)CC(C)C)CC2)ccc1OC | – | – | – | – | IC50 [4]: 155 µM (active) |
| Cc1c(C(=O)Nc2nnc(C(F)(F)F)s2)oc2ccccc12 | – | 3.22 µM (active) | 6.63 µM (active) | 72.7 µM (active) | – |
| COc1cc(NC(=O)c2ccccc2)c(OC)cc1NC(=O)CN1CCN(c2ccccn2)CC1 | 25.1 µM (inconclusive) | – | – | – | AC50 (Cytochrome P450 3A4): 12.6 µM (inconclusive) |

| Compound | AC50 (Cytochrome P450 1A2) | EC50 [2] | EC50 [3] | EC50 (H4) | also measured |
| --- | --- | --- | --- | --- | --- |
| Cc1ccc(-c2nnc(SCC#CCOC(=O)c3cccs3)o2)cc1 | – | 8.34 µM (active) | 37.3 µM (active) | 13.8 µM (active) | – |
| O=C(/C=C/c1cccnc1)c1ccc(NC(=O)c2cccc(Br)c2)cc1 | 14.1 µM (inconclusive) | – | – | – | AC50 (Cytochrome P450 2D6): 2 µM (inconclusive) |
| COCCn1c(=O)c(-c2ccc(OC)cc2)nc2cnc(Nc3cccc(OC)c3)nc21 | 10 µM (inconclusive) | – | – | – | AC50 (Cytochrome P450 3A4): 5.01 µM (inconclusive) |
| CC1Cc2ccccc2N1C(=O)CNCCCN(C)C (stereo not drawn) | – | – | – | – | IC50 [4]: 76.9 µM (active) |
| CCOC(=O)C1(CCc2ccccc2)CCN(C(=O)CCn2cncn2)CC1 | – | 28.8 µM (active) | 12 µM (active) | 7.67 µM (active) | – |
| O=[N+]([O-])c1cc([N+](=O)[O-])c2nonc2c1Nc1ccccc1O | – | – | – | – | IC50 [4]: 76.9 µM (active) |
| Cn1nc(C(F)(F)F)c(C(=O)Nc2ccc(F)cc2F)c1Sc1cccc(C(F)(F)F)c1 | 15.8 µM (inconclusive) | – | – | – | AC50 (Cytochrome P450 2D6): 20 µM (inconclusive) |
| COc1ccc(NC2CCCN(C(=O)CCN3CCCC3=O)C2)cc1OC (stereo not drawn) | – | – | – | – | IC50 [4]: 293 µM (active) |
| COC(=O)[C@@]1(Cc2ccc(F)cc2)[C@H]2c3cc(C(=O)N4CCCC4)n(Cc4ccc(S(C)(=O)=O)cc4)c3C[C@H]2CN1C(=O)c1ccccc1 | 15.8 µM (inconclusive) | – | – | – | AC50 (Cytochrome P450 3A4): 1.26 µM (inconclusive) |
| CCN(CC)CCSc1nnc2c3ccccc3n(CCc3ccccc3)c2n1 | – | > 120 µM (not active) | 16.1 µM (active) | > 120 µM (not active) | – |
| Nc1ccc2c(c1Br)Cc1ccccc1-2 | – | – | – | – | IC50 [4]: 43.8 µM (active) |
| O=C1NC(=O)C2(N1)C(=O)c1cccc3cccc2c13 (stereo not drawn) | – | – | – | – | EC50 [1]: 8.84 µM (active) |
| Cn1c(SCC(=O)N/N=C/c2cc([N+](=O)[O-])ccc2O)nnc1-c1ccccc1 | – | – | – | – | EC50 [1]: > 53 µM (inactive) |
| Fc1cccc(/C=N/NC(=S)Nc2ccccc2Cl)c1 | – | 19.6 µM (active) | 4.14 µM (active) | > 120 µM (not active) | – |
| COC(=O)C1C(O)=C(/C=N/c2ccc(N)cc2)C(=O)CC1(C)C (stereo not drawn) | – | – | – | – | IC50 [4]: 40 µM (active) |
| O=C(CSc1ccc2ccccc2n1)N/N=C/c1ccc(O)cc1 | – | – | – | – | IC50 [4]: 73.2 µM (active) |
| CC(=O)Nc1nnc(S)s1 | – | – | – | – | IC50 [4]: 66.2 µM (active) |
| CC(=O)COc1ccc2c3c(c(=O)oc2c1C)CCCCC3 | – | 28.8 µM (active) | 38.4 µM (active) | > 120 µM (not active) | – |
